Source: patent publication US20120264735A1 (priority 2009, published 2012)

Molecular target: T1, c-Met kinase (recombinant c-Met) (Homo sapiens, UniProt P08581)
T1 construct: 0.27 nM recombinant c-Met
Assay: In vitro kinase assay I (homogeneous time-resolved fluorescence tyrosine kinase assay)
Assay type: biochemical
Procedure, shortened: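 Biotinylated peptide (0.5 μM) phosphorylated by 0.2 nM recombinant c-Met with 50 μM MgATP, 60 min at room temperature, pH 7.4, 5% DMSO. EDTA stop; HTRF read with Eu-anti-phosphotyrosine antibody and streptavidin-APC. IC50 from 4-parameter logistic fit.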

T1 sequence (P08581 25-1390): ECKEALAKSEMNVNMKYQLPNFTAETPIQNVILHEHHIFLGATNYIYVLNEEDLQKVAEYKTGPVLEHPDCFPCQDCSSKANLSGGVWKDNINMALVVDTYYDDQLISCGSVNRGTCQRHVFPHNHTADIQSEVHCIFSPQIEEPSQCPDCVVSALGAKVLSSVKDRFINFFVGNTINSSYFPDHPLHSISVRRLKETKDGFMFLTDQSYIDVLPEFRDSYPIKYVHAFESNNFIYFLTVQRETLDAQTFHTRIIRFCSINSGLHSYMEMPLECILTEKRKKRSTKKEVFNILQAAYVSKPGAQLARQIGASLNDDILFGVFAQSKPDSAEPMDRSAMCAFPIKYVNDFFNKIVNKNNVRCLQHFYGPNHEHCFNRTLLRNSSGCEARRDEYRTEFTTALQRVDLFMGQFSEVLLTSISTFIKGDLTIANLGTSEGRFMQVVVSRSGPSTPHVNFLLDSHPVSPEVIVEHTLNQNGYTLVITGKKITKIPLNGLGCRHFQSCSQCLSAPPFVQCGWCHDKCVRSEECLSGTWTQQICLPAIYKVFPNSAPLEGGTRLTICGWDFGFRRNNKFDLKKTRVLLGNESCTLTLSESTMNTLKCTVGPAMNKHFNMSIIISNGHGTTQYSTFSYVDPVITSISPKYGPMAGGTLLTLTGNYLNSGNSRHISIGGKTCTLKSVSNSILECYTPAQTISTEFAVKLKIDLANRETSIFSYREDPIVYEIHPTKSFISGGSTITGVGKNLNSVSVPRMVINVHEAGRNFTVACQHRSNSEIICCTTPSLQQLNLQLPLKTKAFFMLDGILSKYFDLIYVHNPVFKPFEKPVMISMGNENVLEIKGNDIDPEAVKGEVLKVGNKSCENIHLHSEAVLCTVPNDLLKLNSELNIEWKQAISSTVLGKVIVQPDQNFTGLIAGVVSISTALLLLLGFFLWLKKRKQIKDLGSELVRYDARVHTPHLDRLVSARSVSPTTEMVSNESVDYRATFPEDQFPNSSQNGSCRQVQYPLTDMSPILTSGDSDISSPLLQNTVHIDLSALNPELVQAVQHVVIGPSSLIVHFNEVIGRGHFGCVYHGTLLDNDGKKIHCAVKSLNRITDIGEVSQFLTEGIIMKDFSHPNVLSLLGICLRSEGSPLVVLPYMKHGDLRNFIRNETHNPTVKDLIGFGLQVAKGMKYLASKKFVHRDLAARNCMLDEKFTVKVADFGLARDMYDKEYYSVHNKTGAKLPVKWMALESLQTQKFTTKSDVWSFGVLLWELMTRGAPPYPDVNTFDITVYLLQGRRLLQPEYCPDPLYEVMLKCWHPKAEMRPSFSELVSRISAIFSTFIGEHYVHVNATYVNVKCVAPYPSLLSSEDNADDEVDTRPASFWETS

Compound	IC50
COCCOc1cnc(-c2cccc(Cc3nn(-c4cnn(C)c4)cc(C)c3=O)c2)nc1 [Example 750, 3-{3-[5-(2-Methoxyethoxy)pyrimidin-2-yl]benzyl}-5-methyl-1-(1-methyl-1H-pyrazol-4-yl)pyridazin-4(1H)-one]	< 100 nM
COCCOc1cnc(-c2cccc(Cc3nn(-c4cnn(C)c4F)cc(F)c3=O)c2)nc1 [Example 751, 5-Fluoro-1-(5-fluoro-1-methyl-1H-pyrazol-4-yl)-3-{3-[5-(2-methoxyethoxy)pyrimidin-2-yl]benzyl}pyridazin-4(1h)-one]	< 100 nM
O=c1ccn(-c2ccc(Cl)cc2)nc1Cc1ccc(O)cc1 [Example 754, 1-(4-Chlorophenyl)-3-(4-hydroxybenzyl)pyridazin-4(1H)-one]	100 to 1000 nM
CCOc1cnc(-c2cccc(Oc3nn(-c4cnn(C)c4)ccc3=O)c2)nc1 [Example 755, 3-[3-(5-Ethoxypyrimidin-2-yl)phenoxy]-1-(1-methyl-1H-pyrazol-4-yl)pyridazin-4(1H)-one]	1000 to 3000 nM
CCOc1cnc(-c2cccc(Sc3nn(-c4cnn(C)c4)ccc3=O)c2)nc1 [Example 756, 3-{[3-(5-Ethoxypyrimidin-2-yl)phenyl]sulfanyl}-1-(1-methyl-1H-pyrazol-4-yl)pyridazin-4(1H)-one]	1000 to 3000 nM
O=c1ccn(-c2cc(F)cc(F)c2)nc1Cc1cccc(-c2ncc(O)cn2)c1 [compound 189, 1-(3,5-difluorophenyl)-3-[3-(5-hydroxypyrimidin-2-yl)benzyl]pyridazin-4(1H)-one]	100 to 1000 nM
CCCn1cnc(-c2cccc(Cc3nn(-c4cnn(CCO)c4)ccc3=O)c2)n1 [compound 192, 1-[1-(2-hydroxyethyl)-1H-pyrazol-4-yl]-3-[3-(1-propyl-1H-1,2,4-triazol-3-yl)benzyl]pyridazin-4(1H)-one]	< 100 nM
Cn1cc(-n2ccc(=O)c(Cc3cccc(-c4ncc(CN5CCC(N)CC5)cn4)c3)n2)cn1 [compound 434, 3-(3-{5-[(4-aminopiperidin-1-yl)methyl]pyrimidin-2-yl}benzyl)-1-(1-methyl-1H-pyrazol-4-yl)pyridazin-4(1H)-one]	< 100 nM
COCCN(C)c1cnc(-c2cccc(Cc3nn(-c4cnn(C)c4)ccc3=O)c2)nc1 [compound 457, 3-(3-{5-[(2-methoxyethyl) (methyl)amino]pyrimidin-2-yl}benzyl)-1-(1-methyl-1H-pyrazol-4-yl)pyridazin-4(1H)-one]	< 100 nM
CCOc1cnc(-c2cccc(Cc3nn(-c4cnn(C)c4F)cc(F)c3=O)c2)nc1 [compound 752]	< 100 nM
